One block for each molecule: values may come before it.
Assays:
[1] = target: Protein kinase C alpha type (Homo sapiens, UniProt P17252); assay: Selectivity interaction (Upstate Kinase Profiler service (Millipore)) EUB0000056c PRKCA; conditions: at 1 µM
[2] = target: Calcium/calmodulin-dependent protein kinase type II subunit beta (Homo sapiens) (UniProt Q13554); conditions: at 10 µM
[3] = target: T1, Phosphatidylinositol 5-phosphate 4-kinase type-2 alpha (Homo sapiens) (UniProt P48426); assay: Selectivity interaction (ActivX KiNativ screen (kinase selectivity in THP-1 cell lysates)) EUB0000639a PIP4K2A; type: subcellular; conditions: lysate
T1 sequence (whole entry): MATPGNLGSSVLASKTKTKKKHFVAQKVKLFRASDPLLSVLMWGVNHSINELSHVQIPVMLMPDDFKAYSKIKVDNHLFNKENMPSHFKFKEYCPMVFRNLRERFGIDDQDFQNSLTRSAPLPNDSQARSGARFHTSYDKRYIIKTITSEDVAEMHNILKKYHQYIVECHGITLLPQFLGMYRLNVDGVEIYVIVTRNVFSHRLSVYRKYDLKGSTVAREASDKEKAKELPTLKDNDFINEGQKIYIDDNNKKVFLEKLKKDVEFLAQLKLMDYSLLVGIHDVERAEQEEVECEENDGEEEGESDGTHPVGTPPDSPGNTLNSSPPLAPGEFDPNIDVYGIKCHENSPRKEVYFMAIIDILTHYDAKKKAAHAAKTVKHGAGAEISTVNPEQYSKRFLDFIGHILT

[4] = target: Serine/threonine-protein kinase MARK1 (Homo sapiens) (UniProt Q9P0L2); assay: Selectivity interaction (ActivX KiNativ screen (kinase selectivity in THP-1 cell lysates)) EUB0000639a MARK1; type: subcellular; conditions: lysate
[5] = target: T2, Aurora kinase A (Homo sapiens) (UniProt O14965); assay: Selectivity interaction (ActivX KiNativ screen (kinase selectivity in THP-1 cell lysates)) EUB0000639a STK6; type: subcellular; conditions: lysate, at 0.01 µM
T2 sequence (whole entry): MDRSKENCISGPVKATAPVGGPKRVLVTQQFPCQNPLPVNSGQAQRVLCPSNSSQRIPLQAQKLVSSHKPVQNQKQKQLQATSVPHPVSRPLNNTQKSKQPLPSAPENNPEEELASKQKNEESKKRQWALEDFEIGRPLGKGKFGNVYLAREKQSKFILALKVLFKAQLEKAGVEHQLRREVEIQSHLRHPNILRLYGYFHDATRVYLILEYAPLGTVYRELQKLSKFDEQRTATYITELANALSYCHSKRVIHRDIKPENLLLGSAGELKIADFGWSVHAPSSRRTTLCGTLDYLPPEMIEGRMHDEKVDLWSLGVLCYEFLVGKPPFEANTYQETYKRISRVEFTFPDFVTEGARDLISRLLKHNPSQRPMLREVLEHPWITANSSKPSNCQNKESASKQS

[6] = target: G protein-coupled receptor kinase 6 (Homo sapiens) (UniProt P43250); assay: Selectivity interaction (Kinase panel (Invitrogen)) EUB0000639a GRK6; conditions: at 200 nM
[7] = target: STE20/SPS1-related proline-alanine-rich protein kinase (Homo sapiens) (UniProt Q9UEW8); assay: Selectivity interaction (KinomeScan (DiscoverX)) EUB0001049a STK39; conditions: at 1 µM
[8] = target: Histone-lysine N-methyltransferase KMT5C (Homo sapiens) (UniProt Q86Y97); conditions: at 10 µM
[9] = target: T3, Serine/threonine-protein kinase Nek5 (Homo sapiens) (UniProt Q6P3R8); assay: Selectivity interaction (KinomeScan (DiscoverX)) EUB0000092b NEK5; conditions: at 10 µM
T3 sequence (whole entry): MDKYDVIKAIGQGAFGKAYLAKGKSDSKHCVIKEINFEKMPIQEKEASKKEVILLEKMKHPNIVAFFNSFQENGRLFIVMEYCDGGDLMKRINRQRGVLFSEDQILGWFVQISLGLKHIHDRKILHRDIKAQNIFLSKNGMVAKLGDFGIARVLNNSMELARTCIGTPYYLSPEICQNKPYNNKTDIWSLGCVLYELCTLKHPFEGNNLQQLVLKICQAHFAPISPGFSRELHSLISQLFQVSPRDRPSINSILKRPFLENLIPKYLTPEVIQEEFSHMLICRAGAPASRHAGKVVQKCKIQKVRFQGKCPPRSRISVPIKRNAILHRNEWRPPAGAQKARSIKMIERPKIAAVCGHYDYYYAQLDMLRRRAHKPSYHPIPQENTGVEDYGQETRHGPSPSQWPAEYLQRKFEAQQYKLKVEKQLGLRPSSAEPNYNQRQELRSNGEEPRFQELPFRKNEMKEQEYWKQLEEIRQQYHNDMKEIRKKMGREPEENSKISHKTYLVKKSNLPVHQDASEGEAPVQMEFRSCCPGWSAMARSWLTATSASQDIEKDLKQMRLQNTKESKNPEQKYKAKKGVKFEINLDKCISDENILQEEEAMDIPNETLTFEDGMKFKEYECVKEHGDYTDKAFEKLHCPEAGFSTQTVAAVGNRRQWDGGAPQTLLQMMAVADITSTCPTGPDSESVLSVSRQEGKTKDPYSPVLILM

[10] = target: T4, Interleukin-1 receptor-associated kinase 4 (Homo sapiens) (UniProt Q9NWZ3); assay: Selectivity interaction (KinomeScan (DiscoverX)) EUB0000618a IRAK4; conditions: at 10 µM
T4 sequence (whole entry): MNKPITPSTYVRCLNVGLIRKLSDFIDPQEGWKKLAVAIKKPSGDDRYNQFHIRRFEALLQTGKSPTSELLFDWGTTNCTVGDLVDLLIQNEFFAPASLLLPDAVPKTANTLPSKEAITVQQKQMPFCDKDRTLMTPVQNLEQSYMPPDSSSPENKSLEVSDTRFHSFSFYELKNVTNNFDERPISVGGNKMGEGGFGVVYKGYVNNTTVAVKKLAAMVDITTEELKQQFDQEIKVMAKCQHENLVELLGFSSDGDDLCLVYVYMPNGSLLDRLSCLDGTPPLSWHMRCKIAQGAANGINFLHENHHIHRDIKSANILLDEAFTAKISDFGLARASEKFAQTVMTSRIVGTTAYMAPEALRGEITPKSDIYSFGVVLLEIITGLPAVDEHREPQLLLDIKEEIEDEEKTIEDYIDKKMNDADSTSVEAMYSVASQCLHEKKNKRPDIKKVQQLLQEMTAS

[11] = target: Proto-oncogene tyrosine-protein kinase ROS (Homo sapiens) (UniProt P08922); assay: Selectivity interaction (KinomeScan (DiscoverX)) EUB0001619a ROS1; conditions: at 1 µM
Chain of Proto-oncogene tyrosine-protein kinase ROS (Homo sapiens) (P08922 whole entry): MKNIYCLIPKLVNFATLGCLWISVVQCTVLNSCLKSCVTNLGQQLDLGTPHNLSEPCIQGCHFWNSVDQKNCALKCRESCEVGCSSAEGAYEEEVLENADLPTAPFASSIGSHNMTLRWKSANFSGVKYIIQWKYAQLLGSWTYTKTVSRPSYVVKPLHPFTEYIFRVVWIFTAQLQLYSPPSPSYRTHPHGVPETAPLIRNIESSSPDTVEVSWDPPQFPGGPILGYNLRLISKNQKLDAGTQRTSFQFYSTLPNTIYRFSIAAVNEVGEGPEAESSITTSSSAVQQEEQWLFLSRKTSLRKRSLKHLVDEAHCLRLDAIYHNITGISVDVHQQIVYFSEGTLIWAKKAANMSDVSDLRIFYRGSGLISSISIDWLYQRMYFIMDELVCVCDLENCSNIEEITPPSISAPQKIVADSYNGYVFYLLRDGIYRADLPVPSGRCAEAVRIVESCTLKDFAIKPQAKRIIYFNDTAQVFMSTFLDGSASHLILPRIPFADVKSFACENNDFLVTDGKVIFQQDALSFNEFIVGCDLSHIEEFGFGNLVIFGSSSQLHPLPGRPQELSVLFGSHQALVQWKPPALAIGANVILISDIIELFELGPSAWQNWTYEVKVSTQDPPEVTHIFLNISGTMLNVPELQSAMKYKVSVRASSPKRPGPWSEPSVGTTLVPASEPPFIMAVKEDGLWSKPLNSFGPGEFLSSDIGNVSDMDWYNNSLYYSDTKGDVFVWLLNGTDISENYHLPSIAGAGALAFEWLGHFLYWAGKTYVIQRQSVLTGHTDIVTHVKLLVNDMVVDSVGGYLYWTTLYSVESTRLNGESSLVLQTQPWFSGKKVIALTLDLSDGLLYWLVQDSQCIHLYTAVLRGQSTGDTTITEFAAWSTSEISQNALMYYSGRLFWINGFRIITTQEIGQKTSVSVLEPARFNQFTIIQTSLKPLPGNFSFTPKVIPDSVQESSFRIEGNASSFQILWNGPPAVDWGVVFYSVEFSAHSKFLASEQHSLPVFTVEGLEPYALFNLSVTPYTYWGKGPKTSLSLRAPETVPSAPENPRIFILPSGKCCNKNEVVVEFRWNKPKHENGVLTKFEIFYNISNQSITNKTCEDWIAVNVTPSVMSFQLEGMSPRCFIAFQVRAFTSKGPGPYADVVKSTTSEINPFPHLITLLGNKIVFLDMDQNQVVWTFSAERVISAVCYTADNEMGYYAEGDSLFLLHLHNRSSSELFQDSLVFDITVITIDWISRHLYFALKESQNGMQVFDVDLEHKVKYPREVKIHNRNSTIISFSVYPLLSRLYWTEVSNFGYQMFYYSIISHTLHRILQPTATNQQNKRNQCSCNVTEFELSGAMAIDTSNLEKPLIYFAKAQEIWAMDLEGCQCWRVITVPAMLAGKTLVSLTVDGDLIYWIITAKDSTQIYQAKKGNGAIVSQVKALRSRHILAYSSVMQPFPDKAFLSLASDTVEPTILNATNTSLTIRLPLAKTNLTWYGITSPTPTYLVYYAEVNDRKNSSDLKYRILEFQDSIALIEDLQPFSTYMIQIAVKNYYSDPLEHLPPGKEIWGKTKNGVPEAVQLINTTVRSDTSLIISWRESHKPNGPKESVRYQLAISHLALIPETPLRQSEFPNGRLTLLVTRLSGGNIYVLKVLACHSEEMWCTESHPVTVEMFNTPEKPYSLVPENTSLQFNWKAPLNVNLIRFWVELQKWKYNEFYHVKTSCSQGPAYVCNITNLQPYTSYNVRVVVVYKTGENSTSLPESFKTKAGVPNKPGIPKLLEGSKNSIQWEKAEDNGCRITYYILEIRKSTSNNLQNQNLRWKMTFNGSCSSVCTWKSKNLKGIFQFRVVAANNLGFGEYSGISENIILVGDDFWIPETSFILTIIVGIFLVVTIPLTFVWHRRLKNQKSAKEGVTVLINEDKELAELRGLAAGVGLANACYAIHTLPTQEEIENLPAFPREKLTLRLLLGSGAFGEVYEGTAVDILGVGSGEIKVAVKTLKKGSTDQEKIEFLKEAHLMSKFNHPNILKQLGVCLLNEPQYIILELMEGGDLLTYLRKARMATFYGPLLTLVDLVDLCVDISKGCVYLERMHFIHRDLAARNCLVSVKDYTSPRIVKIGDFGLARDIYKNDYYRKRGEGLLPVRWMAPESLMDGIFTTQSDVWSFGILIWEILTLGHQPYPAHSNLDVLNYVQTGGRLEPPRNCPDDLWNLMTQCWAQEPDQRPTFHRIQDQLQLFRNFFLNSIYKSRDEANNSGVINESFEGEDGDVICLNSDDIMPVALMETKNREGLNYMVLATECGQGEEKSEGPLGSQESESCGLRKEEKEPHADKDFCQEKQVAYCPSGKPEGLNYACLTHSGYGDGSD

Chain of Serine/threonine-protein kinase MARK1 (Homo sapiens) (Q9P0L2 whole entry, looked up): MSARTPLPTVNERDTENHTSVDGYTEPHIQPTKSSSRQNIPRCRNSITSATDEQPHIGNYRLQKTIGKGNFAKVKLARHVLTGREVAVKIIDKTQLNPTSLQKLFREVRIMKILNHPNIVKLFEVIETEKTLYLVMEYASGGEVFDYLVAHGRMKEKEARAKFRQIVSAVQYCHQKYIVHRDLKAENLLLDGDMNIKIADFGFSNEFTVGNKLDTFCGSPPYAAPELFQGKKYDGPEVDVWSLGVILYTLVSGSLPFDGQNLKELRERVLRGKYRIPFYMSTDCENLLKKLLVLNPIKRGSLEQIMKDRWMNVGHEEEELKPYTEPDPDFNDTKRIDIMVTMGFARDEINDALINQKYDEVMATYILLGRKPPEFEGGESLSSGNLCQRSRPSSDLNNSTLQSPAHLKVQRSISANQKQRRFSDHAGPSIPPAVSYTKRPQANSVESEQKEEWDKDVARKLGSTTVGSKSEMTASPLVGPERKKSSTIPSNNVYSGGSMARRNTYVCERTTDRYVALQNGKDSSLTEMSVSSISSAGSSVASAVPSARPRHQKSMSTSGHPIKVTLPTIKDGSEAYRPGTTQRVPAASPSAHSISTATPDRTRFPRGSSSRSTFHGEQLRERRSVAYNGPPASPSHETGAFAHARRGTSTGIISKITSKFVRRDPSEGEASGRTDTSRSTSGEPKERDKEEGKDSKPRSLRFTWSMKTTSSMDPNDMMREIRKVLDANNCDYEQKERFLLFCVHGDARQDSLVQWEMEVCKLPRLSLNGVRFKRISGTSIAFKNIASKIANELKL
Chain of Histone-lysine N-methyltransferase KMT5C (Homo sapiens) (Q86Y97 whole entry, looked up): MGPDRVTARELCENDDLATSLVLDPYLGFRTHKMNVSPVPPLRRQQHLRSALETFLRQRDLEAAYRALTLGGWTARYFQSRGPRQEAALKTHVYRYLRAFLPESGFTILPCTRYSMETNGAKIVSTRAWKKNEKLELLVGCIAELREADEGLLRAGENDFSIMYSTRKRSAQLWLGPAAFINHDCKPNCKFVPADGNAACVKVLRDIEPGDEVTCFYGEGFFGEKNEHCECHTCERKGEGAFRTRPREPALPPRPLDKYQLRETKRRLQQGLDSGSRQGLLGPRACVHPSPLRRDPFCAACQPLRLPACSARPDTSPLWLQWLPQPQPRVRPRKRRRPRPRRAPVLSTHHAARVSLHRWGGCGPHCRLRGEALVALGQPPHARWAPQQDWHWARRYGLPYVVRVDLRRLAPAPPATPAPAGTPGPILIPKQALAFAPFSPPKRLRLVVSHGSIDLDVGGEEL
Chain of Calcium/calmodulin-dependent protein kinase type II subunit beta (Homo sapiens) (Q13554 whole entry): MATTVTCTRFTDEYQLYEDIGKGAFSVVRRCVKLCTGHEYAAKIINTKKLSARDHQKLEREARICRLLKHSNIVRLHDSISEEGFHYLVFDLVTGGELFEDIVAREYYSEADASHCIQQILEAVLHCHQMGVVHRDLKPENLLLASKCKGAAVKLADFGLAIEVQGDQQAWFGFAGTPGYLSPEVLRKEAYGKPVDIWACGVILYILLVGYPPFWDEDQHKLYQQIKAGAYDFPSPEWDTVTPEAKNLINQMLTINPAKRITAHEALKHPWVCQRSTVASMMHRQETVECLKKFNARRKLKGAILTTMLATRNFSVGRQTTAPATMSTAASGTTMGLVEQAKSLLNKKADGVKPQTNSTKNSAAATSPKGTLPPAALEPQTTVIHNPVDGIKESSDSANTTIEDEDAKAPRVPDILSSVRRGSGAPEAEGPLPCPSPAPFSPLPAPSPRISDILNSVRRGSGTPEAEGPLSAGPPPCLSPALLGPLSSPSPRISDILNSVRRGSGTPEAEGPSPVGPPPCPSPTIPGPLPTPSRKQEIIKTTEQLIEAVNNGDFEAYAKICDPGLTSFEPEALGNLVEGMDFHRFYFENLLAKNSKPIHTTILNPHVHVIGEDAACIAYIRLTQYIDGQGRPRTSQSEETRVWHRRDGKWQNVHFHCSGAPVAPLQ
Chain of G protein-coupled receptor kinase 6 (Homo sapiens) (P43250 whole entry, looked up): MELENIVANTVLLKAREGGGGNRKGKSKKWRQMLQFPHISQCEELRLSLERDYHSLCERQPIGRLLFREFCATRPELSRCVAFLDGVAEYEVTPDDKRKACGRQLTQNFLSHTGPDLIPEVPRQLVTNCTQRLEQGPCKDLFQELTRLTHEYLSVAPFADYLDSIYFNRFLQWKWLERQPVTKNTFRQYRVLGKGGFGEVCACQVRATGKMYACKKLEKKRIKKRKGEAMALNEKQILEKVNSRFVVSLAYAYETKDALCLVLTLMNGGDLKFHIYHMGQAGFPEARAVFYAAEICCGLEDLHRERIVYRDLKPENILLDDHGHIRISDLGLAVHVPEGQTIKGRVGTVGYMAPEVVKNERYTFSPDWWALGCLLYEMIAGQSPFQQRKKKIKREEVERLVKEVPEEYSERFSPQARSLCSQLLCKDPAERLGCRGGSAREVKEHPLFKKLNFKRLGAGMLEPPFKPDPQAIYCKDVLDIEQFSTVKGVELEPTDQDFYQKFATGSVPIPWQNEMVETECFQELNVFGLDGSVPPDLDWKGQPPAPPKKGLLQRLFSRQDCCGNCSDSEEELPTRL

% of inhibition [1]: 11%
SMILES: Cc1ccc(-c2ccc3c(ccc4sc5c(c43)NC[C@@H](C)NC5=O)n2)cn1

% of control [2]: 100%
SMILES: CCN(CC)CCCCNc1ncc2cc(-c3cc(OC)cc(OC)c3)c(NC(=O)NC(C)(C)C)nc2n1

% of inhibition ([3]; at 0.01 µM): -3.1% | % of inhibition ([3]; at 0.04 µM): 1.9% | % of inhibition ([3]; at 0.2 µM): -7.7% | % of inhibition ([3]; at 1 µM): -0.6% | % of inhibition ([3]; at 5 µM): -9% | % of inhibition ([4]; at 0.01 µM): -5.4% | % of inhibition ([4]; at 0.04 µM): 8.3% | % of inhibition ([4]; at 0.2 µM): 8.4% | % of inhibition ([4]; at 1 µM): 26.6% | % of inhibition ([4]; at 5 µM): 51.5% | % of inhibition [5]: -3.4% | % of inhibition [6]: 3.09%
SMILES: CC[C@@H]1[C@H](F)C(=O)N[C@@H]1COc1nccc2cc(C(N)=O)c(OC)cc12 [ZIMLOVISERTIB]

% activity [8]: > 90%
SMILES: CNCCN1CCC(c2cc(CN(C)C(=O)c3cccc(Oc4ccccc4)c3)ccn2)CC1

Continued, molecule first:

SMILES: COc1cc(Nc2nc(C)cc(-c3cnn4nc(OC)ccc34)n2)cc(C(F)(F)F)c1
% of control [7]: 64%

SMILES: CCC(=O)N1CCN(c2ccc(-n3c(=O)ccc4cnc5ccc(-c6cnc7ccccc7c6)cc5c43)cc2C(F)(F)F)CC1
% of control [9]: 5.8%

SMILES: O[C@H]1CC[C@H](Nc2ncc3nc(Nc4c(F)cc(F)cc4F)n([C@H]4CCOC4)c3n2)CC1
% of control [10]: 94%

SMILES: N#Cc1cccc(-c2c[nH]c3ncnc(N4CCOCC4)c23)c1
% of control [11]: 90%

— ChEMBL document CHEMBL5465560, “Selectivity Literature for EUbOPEN Chemogenomic Library” (2024)
